Assay results published in patent US20250099633A1, “NTSR1-TARGETED RADIOPHARMACEUTICALS AND CHECKPOINT INHIBITOR COMBINATION THERAPY” (Fusion Pharmaceuticals Inc., priority 2022, published 2025).

Legend:
[1] = test system: CT-26-mNTSR1 tumor; assay: Combination with checkpoint inhibitors, relative tumor volume in the CT-26-mNTSR1 mouse model; type: in vivo
Procedure: An in vivo study was conducted to test the effect of [^225Ac]-Compound A (as described in Example 3) combined with checkpoint inhibitors, α-CTLA-4 and α-PD-1 antibodies, on relative tumor volume in the CT-26-mNTSR1 mouse model.

[2] = test system: CT-26-mNTSR1 tumor; assay: Efficacy study in immunocompetent CT-26-mNTSR1 tumor bearing-mice (tumor volume); type: in vivo, mouse; conditions: different doses; CT-26-mNTSR1 syngeneic mice with an intact immune system
[3] = test system: CT-26-mNTSR1 tumor; assay: Combination with checkpoint inhibitors, survival in the CT-26-mNTSR1 mouse model; type: in vivo; conditions: for Overall survival: intravenous
Procedure: An in vivo study was conducted to test the effect of [^225Ac]-Compound A (as described in Example 3) combined with checkpoint inhibitors, α-CTLA-4 and α-PD-1 antibodies, on survival in the CT-26-mNTSR1 mouse model.
Separately, an in vivo study was conducted to test the effect of [^225Ac]-Compound A (as
described in Example 4) at a different dosage in combination with checkpoint inhibitors, α-CTLA-4 and α-PD-1 antibodies, on survival in the CT-26-mNTSR1 mouse model.

[4] = test system: mouse NTSR1 overexpressing tumors; assay: [177Lu]-Compound A biodistribution in CT-26 syngeneic model; type: in vivo; conditions: 6-48 hours post injection
Procedure: Tumor uptake was maintained at 2.5-7% injected dose/g (ID/g) from 6-48 hours post injection.

SMILES | Efficacy (tumor volume) ([1]; 0.185 MBq/kg or 0.555 MBq/kg single-dose, intravenous, co-administered with 5 mg/kg of CTLA-4 or PD-1 or both) | Tumor regression, duration ([1]; 0.555 MBg/kg dose, co-administration with both CTLA-4 and PD-1) [days post-treatment] | Tumor volume ([1]; 0.555 MBg/kg dose, co-administration with both CTLA-4 and PD-1, compared to vehicle control and 225Ac-radiopharmaceutical alone groups) | Tumor volume ([1]; 0.555 MBq/kg single-dose, intravenous, alone, relative to the vehicle control group) | Efficacy in reducing tumor volume [2] | Overall survival ([3]; 0.185 MBq/kg single-dose, with 5 mg/kg α-CTLA-4 or α-PD-1 (or both), compared to vehicle control or [225Ac]-Compound A alone) | Overall survival ([3]; 0.555 MBq/kg single-dose, with 5 mg/kg α-CTLA-4 or α-PD-1, compared to the vehicle and [225Ac]-Compound A single treatment group) | Survival ([3]; 0.555 MBq/kg, co-administration with both α-CTLA-4 and α-PD-1, compared to vehicle control or [225Ac]-Compound A with or without either antibody) | Tumor uptake [4]
COc1cccc(OC)c1-c1cc(C(=O)NC2(C(=O)O)C3CC4CC(C3)CC2C4)nn1-c1ccc(C(=O)N(C)CCCN(C)CCCN(C)C(=O)CN2CCN(CC(=O)O)CCN(CC(=O)O)CCN(CC(=O)O)CC2)cc1C(C)C (stereo not drawn) [[^225Ac]-Compound A, metal not drawn] | increased efficacy was observed including tumor suppression | ≥ 40 | significantly smaller tumor volume | greater reductions in tumor volume | enhanced efficacy in reducing tumor volume | increased overall survival | increased overall survival | increased survival | –
COc1cccc(OC)c1-c1cc(C(=O)NC2(C(=O)O)C3CC4CC(C3)CC2C4)nn1-c1ccc(C(=O)N(C)CCCN(C)CCCN(C)C(=O)CN2CCN(CC(=O)O)CCN(CC(=O)O)CCN(CC(=O)O)CC2)cc1C(C)C (stereo not drawn) [[177Lu]-Compound A, metal not drawn] | – | – | – | – | – | – | – | – | 2.5-7 % injected dose/g (ID/g)
